Measured values as given in ChEMBL document CHEMBL1157927, “Identification and structure-activity relationship of 8-hydroxy-quinoline-7-carboxylic acid derivatives as inhibitors of Pim-1 kinase” (Bioorg Med Chem Lett, 2010).
pIC50: −log10 of the molar value.

How the values were obtained:
[1] = molecular target: T1, Serine/threonine-protein kinase pim-1 (Homo sapiens, UniProt P11309); experiment: Inhibition of PIM1
Target sequence in this assay (P11309 whole entry): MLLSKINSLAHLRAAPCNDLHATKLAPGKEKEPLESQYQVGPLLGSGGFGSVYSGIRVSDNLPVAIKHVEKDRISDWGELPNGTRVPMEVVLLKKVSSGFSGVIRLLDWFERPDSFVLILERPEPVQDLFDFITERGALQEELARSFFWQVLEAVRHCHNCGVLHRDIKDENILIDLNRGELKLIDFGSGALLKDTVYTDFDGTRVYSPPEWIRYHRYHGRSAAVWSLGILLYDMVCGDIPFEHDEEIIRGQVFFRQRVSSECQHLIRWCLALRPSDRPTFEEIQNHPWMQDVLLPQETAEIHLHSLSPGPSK

CDK1/Cyclin A = CDK1/Cyclin A (Homo sapiens, UniProt P06493); experiment: Inhibition of CDK1/Cyclin A; type: protein-complex assay
CDK1/Cyclin A, sequence (P06493 whole entry): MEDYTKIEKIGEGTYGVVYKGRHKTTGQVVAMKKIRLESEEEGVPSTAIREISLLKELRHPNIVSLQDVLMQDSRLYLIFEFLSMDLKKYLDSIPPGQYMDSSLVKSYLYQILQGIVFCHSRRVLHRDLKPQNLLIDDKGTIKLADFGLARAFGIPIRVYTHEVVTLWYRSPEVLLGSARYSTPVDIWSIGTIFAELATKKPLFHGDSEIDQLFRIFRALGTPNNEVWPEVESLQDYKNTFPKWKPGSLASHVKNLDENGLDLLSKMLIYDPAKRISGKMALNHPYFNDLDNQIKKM
CDK1/Cyclin A, sequence (P20248 whole entry, further chain): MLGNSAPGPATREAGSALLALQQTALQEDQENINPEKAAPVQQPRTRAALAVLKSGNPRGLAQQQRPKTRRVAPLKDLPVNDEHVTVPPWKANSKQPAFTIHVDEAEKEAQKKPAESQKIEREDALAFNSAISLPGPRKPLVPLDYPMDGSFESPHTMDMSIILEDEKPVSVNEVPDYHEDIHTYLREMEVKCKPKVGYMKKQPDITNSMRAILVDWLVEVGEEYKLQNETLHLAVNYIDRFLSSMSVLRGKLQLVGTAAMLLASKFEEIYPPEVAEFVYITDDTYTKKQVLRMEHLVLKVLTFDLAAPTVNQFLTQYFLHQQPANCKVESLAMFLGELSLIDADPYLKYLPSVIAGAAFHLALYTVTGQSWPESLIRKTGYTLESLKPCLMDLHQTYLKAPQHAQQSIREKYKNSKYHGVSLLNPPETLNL

[2] = molecular target: Dual specificity protein kinase CLK1 (Homo sapiens, UniProt P49759); experiment: Inhibition of CLK1
Dual specificity protein kinase CLK1, sequence (P49759 whole entry, canonical isoform): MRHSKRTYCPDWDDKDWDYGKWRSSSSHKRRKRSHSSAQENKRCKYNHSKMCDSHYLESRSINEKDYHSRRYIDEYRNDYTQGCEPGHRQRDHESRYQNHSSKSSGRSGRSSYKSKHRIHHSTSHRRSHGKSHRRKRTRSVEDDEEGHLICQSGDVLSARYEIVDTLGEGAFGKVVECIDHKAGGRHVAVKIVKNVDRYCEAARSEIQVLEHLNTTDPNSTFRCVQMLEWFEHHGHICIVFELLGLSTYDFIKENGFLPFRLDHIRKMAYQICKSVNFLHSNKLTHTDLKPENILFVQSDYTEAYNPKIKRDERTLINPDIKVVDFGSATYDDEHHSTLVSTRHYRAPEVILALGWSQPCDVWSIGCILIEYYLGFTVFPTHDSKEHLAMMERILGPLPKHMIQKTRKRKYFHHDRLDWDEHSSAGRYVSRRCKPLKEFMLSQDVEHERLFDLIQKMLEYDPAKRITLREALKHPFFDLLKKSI

[3] = molecular target: Casein kinase I isoform alpha (Homo sapiens, UniProt P48729); experiment: Inhibition of CK1
Casein kinase I isoform alpha, sequence (P48729 whole entry, canonical isoform): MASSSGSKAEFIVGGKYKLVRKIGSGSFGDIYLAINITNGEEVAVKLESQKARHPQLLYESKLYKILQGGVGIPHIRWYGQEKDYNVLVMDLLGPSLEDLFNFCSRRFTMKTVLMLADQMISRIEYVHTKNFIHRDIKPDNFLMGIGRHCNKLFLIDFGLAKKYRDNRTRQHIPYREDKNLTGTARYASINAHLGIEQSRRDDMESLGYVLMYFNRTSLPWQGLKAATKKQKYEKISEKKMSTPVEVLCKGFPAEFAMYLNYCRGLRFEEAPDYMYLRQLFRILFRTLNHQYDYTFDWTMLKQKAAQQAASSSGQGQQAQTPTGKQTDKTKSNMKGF

[4] = molecular target: T2, Dual specificity tyrosine-phosphorylation-regulated kinase 2 (Homo sapiens, UniProt Q92630); experiment: Inhibition of DYRK2
T2 sequence (Q92630 whole entry): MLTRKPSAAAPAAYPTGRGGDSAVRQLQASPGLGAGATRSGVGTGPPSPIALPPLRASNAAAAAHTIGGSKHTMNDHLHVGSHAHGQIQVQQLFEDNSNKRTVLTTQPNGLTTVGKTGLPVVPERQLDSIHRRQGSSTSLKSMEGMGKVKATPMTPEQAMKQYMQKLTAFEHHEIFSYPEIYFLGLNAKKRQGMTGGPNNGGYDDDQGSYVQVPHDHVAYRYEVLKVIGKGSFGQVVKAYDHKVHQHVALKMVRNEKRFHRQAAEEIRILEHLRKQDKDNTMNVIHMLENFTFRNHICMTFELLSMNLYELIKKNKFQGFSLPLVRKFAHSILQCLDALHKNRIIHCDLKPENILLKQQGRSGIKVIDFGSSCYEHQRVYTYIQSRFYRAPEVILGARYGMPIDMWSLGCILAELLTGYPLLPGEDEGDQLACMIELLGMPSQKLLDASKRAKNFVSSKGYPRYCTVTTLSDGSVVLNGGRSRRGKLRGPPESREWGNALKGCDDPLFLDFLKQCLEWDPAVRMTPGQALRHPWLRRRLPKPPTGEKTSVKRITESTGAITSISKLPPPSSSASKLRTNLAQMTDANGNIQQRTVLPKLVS

[5] = molecular target: Glycogen synthase kinase-3 (Homo sapiens, UniProt P49840+P49841); experiment: Inhibition of GSK3alpha/beta; type: protein assay
[6] = molecular target: Cyclin-dependent kinase 5/CDK5 activator 1 (Homo sapiens, UniProt Q00535); experiment: Inhibition of CDK5/P25; type: protein-complex assay
Cyclin-dependent kinase 5/CDK5 activator 1, sequence (Q00535 whole entry): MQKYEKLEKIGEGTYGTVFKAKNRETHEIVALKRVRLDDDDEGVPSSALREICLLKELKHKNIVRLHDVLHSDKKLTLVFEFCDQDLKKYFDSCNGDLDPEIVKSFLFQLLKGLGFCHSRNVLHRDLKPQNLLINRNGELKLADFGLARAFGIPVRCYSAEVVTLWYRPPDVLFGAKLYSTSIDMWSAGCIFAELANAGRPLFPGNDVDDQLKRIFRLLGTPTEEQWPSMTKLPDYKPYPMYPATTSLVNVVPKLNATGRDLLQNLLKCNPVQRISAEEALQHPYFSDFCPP
Cyclin-dependent kinase 5/CDK5 activator 1, sequence (Q15078 whole entry, further chain): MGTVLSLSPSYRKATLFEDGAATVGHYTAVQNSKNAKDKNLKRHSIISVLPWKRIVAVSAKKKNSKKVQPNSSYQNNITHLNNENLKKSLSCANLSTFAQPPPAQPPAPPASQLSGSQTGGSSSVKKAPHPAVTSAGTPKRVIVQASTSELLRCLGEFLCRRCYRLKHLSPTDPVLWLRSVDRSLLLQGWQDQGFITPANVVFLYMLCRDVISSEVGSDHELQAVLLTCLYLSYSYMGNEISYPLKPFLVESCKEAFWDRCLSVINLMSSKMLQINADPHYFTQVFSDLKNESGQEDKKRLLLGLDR

[7] = molecular target: Dual specificity tyrosine-phosphorylation-regulated kinase 1A (Mus musculus, UniProt Q61214); experiment: Inhibition of mouse DYRK1A expressed in Escherichia coli after 20 mins
[8] = molecular target: Cyclin-dependent kinase 1/cyclin B1 (Homo sapiens, UniProt P06493); experiment: Inhibition of CDK1/cyclin B; type: protein-complex assay
Cyclin-dependent kinase 1/cyclin B1, sequence (P06493 whole entry): as the sequence (P06493 whole entry) above
Cyclin-dependent kinase 1/cyclin B1, sequence (P14635 whole entry, further chain): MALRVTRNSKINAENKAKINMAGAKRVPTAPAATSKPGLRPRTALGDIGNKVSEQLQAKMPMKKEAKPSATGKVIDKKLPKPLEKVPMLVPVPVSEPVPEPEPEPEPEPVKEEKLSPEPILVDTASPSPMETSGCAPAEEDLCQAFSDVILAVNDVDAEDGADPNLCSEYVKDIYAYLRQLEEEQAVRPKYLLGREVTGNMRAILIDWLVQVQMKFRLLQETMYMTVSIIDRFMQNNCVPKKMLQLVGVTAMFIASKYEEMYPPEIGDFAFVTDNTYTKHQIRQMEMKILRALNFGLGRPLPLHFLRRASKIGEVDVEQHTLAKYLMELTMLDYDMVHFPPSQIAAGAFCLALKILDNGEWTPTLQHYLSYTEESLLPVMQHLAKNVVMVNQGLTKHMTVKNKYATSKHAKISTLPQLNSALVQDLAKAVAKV

[9] = molecular target: T1, Serine/threonine-protein kinase pim-1; experiment: Inhibition of PIM1 at 10 uM
Target sequence in this assay (P11309 whole entry, looked up): as the sequence (P11309 whole entry) above

| pIC50 [1] | inhibition [9] [%] | Structure (SMILES) | further results |
| --- | --- | --- | --- |
| 5.15 | – | O=C(O)c1ccc2ccc(/C=C/c3cccc(O)c3O)nc2c1O | – |
| 5.60 | – | COc1cc(/C=C/c2ccc3ccc(C(=O)O)c(O)c3n2)cc(OC)c1O | – |
| 6.70 | – | O=C(NCc1ccc(O)cc1O)c1ccc2ccc(C(=O)O)c(O)c2n1 | pIC50 (CDK1/Cyclin A): < 5.00; pIC50 [2]: < 5.00; pIC50 [3]: < 5.00; pIC50 [4]: 5.20; IC50 [5]: > 10 µM; pIC50 [6]: < 5.00; pIC50 [7]: 5.35; pIC50 [8]: < 5.00 |
| 6.00 | – | COc1cc(NC(=O)c2ccc3ccc(C(=O)O)c(O)c3n2)cc(O)c1O | – |
| 5.52 | – | O=C(O)c1ccc2ccc(/C=C/c3ccc4c(c3)OCO4)nc2c1O | – |
| 5.52 | – | O=C(NNc1ccc([N+](=O)[O-])cc1[N+](=O)[O-])c1ccc2ccc(C(=O)O)c(O)c2n1 | – |
| < 5.00 | > 50 | Cc1ccc2ccc(C(=O)O)c(O)c2n1 | – |
| 5.55 | – | O=C(NCc1cccc(O)c1O)c1ccc2ccc(C(=O)O)c(O)c2n1 | – |
| < 5.00 | > 50 | O=C(NCc1ccc(O)c(O)c1)c1ccc2c(Cl)cc(Cl)c(O)c2n1 | – |
| < 5.00 | > 50 | Cc1ccc2c(-c3ccccc3)cc(C(=O)O)c(O)c2n1 | – |
| 5.29 | – | O=C(NNc1ccccc1)c1ccc2ccc(C(=O)O)c(O)c2n1 | – |
| 6.22 | – | O=C(NCc1cc(O)cc(O)c1)c1ccc2ccc(C(=O)O)c(O)c2n1 | – |
| 5.68 | – | O=C(O)c1ccc2ccc(/C=C/c3cc(Br)c(O)c(Br)c3)nc2c1O | – |
| 5.30 | > 50 | O=C(O)c1ccc2ccc(CCc3ccc(O)c(O)c3)nc2c1O | – |
| < 5.00 | > 50 | O=C(O)c1cccc2ccc(/C=C/c3ccc(O)c(O)c3)nc12 | – |
| < 5.00 | < 50 | O=C(c1ccncc1)c1ccc2ccc(/C=C/c3ccc(O)c(O)c3)nc2c1O | – |
| 5.26 | – | O=C(O)c1ccc2ccc(/C=C/c3cc(O)c(O)c(O)c3)nc2c1O | – |
| 5.48 | – | COc1cc(CNC(=O)c2ccc3ccc(C(=O)O)c(O)c3n2)cc(O)c1O | – |
| 6.40 | – | O=C(O)c1ccc2ccc(/C=C/c3cc(O)cc(O)c3)nc2c1O | – |
| < 5.00 | > 50 | Cc1ccc2cccc(C(=O)O)c2n1 | – |
| 5.51 | – | O=C(O)c1cc(/C=C/c2ccc3ccc(C(=O)O)c(O)c3n2)ccc1O | – |

| pIC50 [1] | inhibition [9] [%] | Structure (SMILES) | further results |
| --- | --- | --- | --- |
| 5.35 | – | COc1cc(/C=C/c2ccc3ccc(C(=O)O)c(O)c3n2)cc(Cl)c1O | – |
| < 5.00 | > 50 | Cc1ccc2cccc(NS(C)(=O)=O)c2n1 | – |
| 5.40 | – | Nc1ccc(/C=C/c2ccc3ccc(C(=O)O)c(O)c3n2)cc1 | – |
| < 5.00 | > 50 | O=C(NCc1ccc(O)cc1)c1ccc2cccc(C(=O)O)c2n1 | – |
| 6.30 | – | O=C(O)c1ccc2ccc(/C=C/c3ccc(O)cc3O)nc2c1O | – |
| 6.15 | – | O=C(O)c1ccc2ccc(/C=C/c3ccc(O)cc3)nc2c1O | – |
| 5.68 | > 50 | O=C(NCc1ccc(O)c(O)c1)c1ccc2ccc(C(=O)O)c(O)c2n1 | – |
| 5.49 | – | O=C(O)c1ccc2ccc(/C=C/c3ccccc3)nc2c1O | – |
| 5.70 | – | COc1cc(/C=C/c2ccc3ccc(C(=O)O)c(O)c3n2)ccc1O | – |
| 5.77 | > 50 | O=C(O)c1ccc2ccc(/C=C/c3ccc(O)c(O)c3)nc2c1O | – |
| 5.51 | – | COc1cc(/C=C/c2ccc3ccc(C(=O)O)c(O)c3n2)cc(O)c1O | – |
| 5.47 | – | O=C(O)c1ccc2ccc(/C=C/c3ccc([N+](=O)[O-])cc3)nc2c1O | – |
| < 5.00 | > 50 | Oc1ccc(/C=C/c2ccc3cccc(O)c3n2)cc1O | – |
| 5.35 | – | O=C(O)c1ccc2ccc(/C=C/c3ccc(F)c(F)c3)nc2c1O | – |
| 6.30 | – | O=C(NCc1ccc(O)c(O)c1)Nc1ccc2ccc(C(=O)O)c(O)c2n1 | – |
| 5.55 | – | COc1cc(/C=C/c2ccc3ccc(C(=O)O)c(O)c3n2)cc([N+](=O)[O-])c1O | – |
| < 5.00 | < 50 | O=C(O)c1ccc(O)c2nc(/C=C/c3ccc(O)c(O)c3)ccc12 | – |
| 5.70 | – | COc1ccc(CNC(=O)Nc2ccc3ccc(C(=O)O)c(O)c3n2)cc1 | – |
| 6.30 | – | COc1ccc(/C=C/c2ccc3ccc(C(=O)O)c(O)c3n2)cc1O | pIC50 (CDK1/Cyclin A): < 5.00; pIC50 [2]: 5.08; pIC50 [3]: < 5.00; pIC50 [4]: 5.96; IC50 [5]: > 10 µM; pIC50 [6]: < 5.00; pIC50 [7]: 5.89; pIC50 [8]: < 5.00 |
| 6.00 | – | O=C(Nc1ccc(O)c(O)c1)Nc1ccc2ccc(C(=O)O)c(O)c2n1 | – |
